The values below come from patent publication US20230365933A1, “COMPOSITIONS AND METHODS FOR INCREASING STEM CELL FUNCTION” (SOCIETE DES PRODUITS NESTLE S.A., priority 2020, published 2023).

Experiment [1] deals with murine HSCs (LKS CD150+CD48−). Description: Mitochondrial membrane potential by TMRM staining and flow cytometry in cultured mHSCs. The class given is cell-based, mouse. To be noted: compared to Basal condition; NR 500 uM, Vit B12 (MC) 100 uM; day 3 of culture. The procedure:
Flow cytometry analysis was performed on freshly isolated bone marrow (BM) from C57BI6 mice. BM was extracted from crushed femora and tibia. Cell suspension was filtered through a 70 μm cell strainer and erythroid cells were eliminated by incubation with red blood cell lysis buffer (eBioscences). Isolation and stains were performed in ice-cold PBS 1 mM EDTA. Lineage positive cells were then removed with a magnetic lineage depletion kit (BD biosciences). Cell suspensions were then stained with specific antibodies for the stem cell compartment and sorted by FACS (BD FACS Aria III) into 1.5 ml Eppendorf tubes.
The following antibodies were used in this study: rat mAbs against cKit (2B8), Sca1 (D7), CD150 (TC-15-12F12.2), CD48 (HM48-1). The antibodies were purchased from Biolegend, eBiosciences and BD. A mixture of biotinylated mAbs against CD3, CD11b, CD45R/B220, Ly-6G, Ly-6C and TER-119 was used as lineage marker (“lineage cocktail”) and was purchased from BD. DAPI or propidium iodine (PI) staining was used for live/dead cell discrimination.
Murine HSCs were sorted into 1.5 ml Eppendorf tubes and were cultured in Stemline II (SIGMA) supplemented with 100 ng/ml SCF (R&D) and 2 ng/ml Flt3 (R&D). This was defined as the basal condition. Different concentrations as indicated of NR and Vit B12 (MC) were added in specific wells. NR was supplemented every 24 hours.
Mouse HSCs already in culture were incubated at 37° C. for 1 hour with 200 nM tetramethylrhodamine methyl ester (TMRM; Invitrogen) and 100 nM Mitotracker green. Cells were then washed with FACS buffer and analysed by flow cytometry on a BD LSR II.
Freshly FACS sorted mHSCs (LKS CD150+CD48−) were cultured in basal media (Stemline+SCF+FLT3L) supplemented with UroA, NR and MC in specific wells (as indicated). Cells were harvested at day 3 and stained with tetramethylrhodamine methyl ester (TMRM; to measure mitochondria membrane potential) and Mitotracker (to measure mitochondrial mass), and analysed by flow cytometry.
(In flow cytometry, cells or beads pass a laser one at a time.)

Experiment [2] has as its system human HSCs. Particulars: culture media supplemented with nicotinamide riboside, primary and secondary recipient humanised mice; cited from earlier work.

SMILES strings stand for the structures. “Also recorded” adds a separate entry of the source.

Turning to `C/C1=C2/[N-][C@H]([C@H](CC(N)=O)[C@@]2(C)CCC(=O)NC[C@@H](C)OP(=O)([O-])O[C@H]2[C@@H](O)[C@@H](n3cnc4cc(C)c(C)cc43)O[C@@H]2CO)[C@]2(C)N=C(/C(C)=C3N=C(/C=C4N=C1[C@@H](CCC(N)=O)C\4(C)C)[C@@H](CCC(N)=O)[C@]\3(C)CC(N)=O)[C@@H](CCC(N)=O)[C@]2(C)CC(N)=O.[CH3-].[Co]` [MC, methylcobalamine], in experiment [1], the “TMRM fluorescent intensity (Mean Fluorescence Intensity, MFI)” value is listed as “significantly decreased; also recorded: decreases” and the “proportion of cells in the TMRM low gate” value is listed as “significantly increased; also recorded: increases”.
With `NC(=O)c1ccc[n+]([C@@H]2O[C@H](CO)[C@@H](O)[C@H]2O)c1` [NR, Nicotinamide riboside], in experiment [1], the “TMRM fluorescent intensity (Mean Fluorescence Intensity, MFI)” value was “significantly decreased; also recorded: decreases” and the “proportion of cells in the TMRM low gate” value is “significantly increased; also recorded: increases”. In experiment [2], the levels of engraftment result is given as “significantly higher levels of engraftment” and the long-term blood production result is “capable of sustaining long-term blood production”.
